Test results published in ChEMBL document CHEMBL4311945, “Development of Dual Chitinase Inhibitors as Potential New Treatment for Respiratory System Diseases” (J Med Chem, 2019).
Values after ≈ are worked out from the molar mass of the structure shown. Each block holds one molecule with its values, some of them ahead of it.

Legend:
[1] = target: T1, Voltage-gated inwardly rectifying potassium channel KCNH2 (Homo sapiens, UniProt Q12809); test: Displacement of Tracer Red from human ERG by fluorescence polarization assay
Chitotriosidase-1 [2] = target: Chitotriosidase-1 (Mus musculus, UniProt Q9D7Q1); test: Inhibition of full-length C-terminal his-tagged mouse CHIT1 expressed in CHO-K1 cells assessed as reduction in chitinolytic activity using 4-methylumbelliferyl-beta-D-N,N',N\"-triacetylchitotrioside as substrate after 60 mins by fluorometric assay; assay type: cell-based
[3] = target: Acidic mammalian chitinase (Mus musculus, UniProt Q91XA9); test: Inhibition of full-length C-terminal his-tagged mouse acidic mammalian chitinase expressed in CHO-K1 cells assessed as reduction in chitinolytic activity using 4-methylumbelliferyl-beta-D-N,N'-diacetylchitobioside hydrate as substrate after 60 mins by fluorometric assay
Chitotriosidase-1 [4] = target: Chitotriosidase-1 (Homo sapiens, UniProt Q13231); test: Inhibition of full-length C-terminal his-tagged human CHIT1 expressed in CHOK1 cells assessed as reduction in chitinolytic activity using 4-methylumbelliferyl-beta-D-N,N',N\"-triacetylchitotrioside as substrate after 60 mins by fluorometric assay; assay type: cell-based
[5] = Lipophilicity, logD of the compound at pH 7.4; assay type: physicochemical; settings: buffer
[6] = target: dopamine transporter (DAT) (Homo sapiens, UniProt Q01959); test: Displacement of [3H]BTCP from recombinant human dopamine transporter at 10 uM after 120 mins by scintillation counting analysis relative to control; assay type: ADME; settings: probe [3H]BTCP
Mus musculus = test: Antiinflammatory activity in C57BL/6 mouse model of house-dust mite induced pulmonary inflammation assessed as reduction in total CD45 positive cells in bronchoalveolar lavage fluid at 50 mg/kg, po administered once daily starting from day 7 post house-dust mite challenge and measured on day 19 by flow cytometric method relative to control; assay type: functional; set-up: scale not given: the % may be the effect or the level left
[7] = Drug uptake in BALB/c mouse brain at 10 mg/kg, po administered as single dose after 2 hrs by LC/MS/MS analysis; assay type: ADME, organism-based; settings: in vivo
[8] = target: Sodium-dependent dopamine transporter (Homo sapiens, UniProt Q01959); test: Inhibition of radioligand binding to human dopamine transporter by radioligand binding assay; assay type: ADME
[9] = target: Sodium-dependent dopamine transporter (Rattus norvegicus, UniProt P23977); test: Displacement of [3H]DA from rat dopamine transporter after 15 mins by scintillation counting analysis; assay type: ADME
[10] = target: T1, Voltage-gated inwardly rectifying potassium channel KCNH2; test: Inhibition of human ERG expressed in CHO-K1 cells by automated Patch Clamp method; assay type: cell-based
[11] = Oral bioavailability in Sprague-Dawley rat at 10 mg/kg measured upto 12 hrs by LC/MS/MS analysis; assay type: ADME, organism-based; settings: in vivo
[12] = Tmax in Sprague-Dawley rat at 10 mg/kg, po measured upto 12 hrs by LC/MS/MS analysis; assay type: ADME, organism-based; settings: in vivo
[13] = Genotoxicity in Salmonella typhimurium; assay type: toxicity; settings: salmonella enterica subsp. enterica serovar typhimurium
[14] = Half-life in Sprague-Dawley rat at 10 mg/kg, po measured upto 12 hrs by LC/MS/MS analysis; assay type: ADME, organism-based; settings: in vivo
[15] = Cmax in Sprague-Dawley rat at 10 mg/kg, po measured upto 12 hrs by LC/MS/MS analysis; assay type: ADME, organism-based; set-up: dose 10 mg/kg, route oral; settings: in vivo
[16] = AUC (0 to infinity) in Sprague-Dawley rat at 10 mg/kg, po measured upto 12 hrs by LC/MS/MS analysis; assay type: ADME, organism-based; set-up: dose 10 mg/kg, route oral, time infinity; settings: in vivo
[17] = Half-life in Sprague-Dawley rat at 3 mg/kg, iv administered as single bolus dose measured after 5 to 12 hrs by LC/MS/MS analysis; assay type: ADME, organism-based; settings: in vivo
[18] = Cmax in Sprague-Dawley rat at 3 mg/kg, iv administered as single bolus dose measured after 5 to 12 hrs by LC/MS/MS analysis; assay type: ADME, organism-based; set-up: dose 3 mg/kg, route intravenous; settings: in vivo
[19] = AUC (0 to infinity) in Sprague-Dawley rat at 3 mg/kg, iv administered as single bolus dose measured after 5 to 12 hrs by LC/MS/MS analysis; assay type: ADME, organism-based; set-up: dose 3 mg/kg, time infinity, route intravenous; settings: in vivo
[20] = Oral bioavailability in BALB/c mouse at 10 mg/kg measured after 24 hrs by LC/MS/MS analysis; assay type: ADME, organism-based; settings: in vivo
[21] = Tmax in BALB/c mouse at 10 mg/kg, po measured after 24 hrs by LC/MS/MS analysis; assay type: ADME, organism-based; settings: in vivo
[22] = AUC (0 to infinity) in BALB/c mouse at 10 mg/kg, po measured after 24 hrs by LC/MS/MS analysis; assay type: ADME, organism-based; set-up: dose 10 mg/kg, route oral, time infinity; settings: in vivo
[23] = Cmax in BALB/c mouse at 10 mg/kg, po measured after 24 hrs by LC/MS/MS analysis; assay type: ADME, organism-based; set-up: dose 10 mg/kg, route oral; settings: in vivo
[24] = Half-life in BALB/c mouse at 10 mg/kg, po measured after 24 hrs by LC/MS/MS analysis; assay type: ADME, organism-based; settings: in vivo
[25] = Half-life in BALB/c mouse at 3 mg/kg, iv administered as single bolus dose measured after 24 hrs by LC/MS/MS analysis; assay type: ADME, organism-based; settings: in vivo
[26] = Clearance in BALB/c mouse at 3 mg/kg, iv administered as single bolus dose measured after 24 hrs by LC/MS/MS analysis; assay type: ADME, organism-based; settings: in vivo
[27] = Cmax in BALB/c mouse at 3 mg/kg, iv administered as single bolus dose measured after 24 hrs by LC/MS/MS analysis; assay type: ADME, organism-based; set-up: dose 3 mg/kg, route intravenous; settings: in vivo
[28] = Solubility of the compound in water; assay type: physicochemical
[29] = AUC (0 to infinity) in BALB/c mouse at 3 mg/kg, iv administered as single bolus dose measured after 24 hrs by LC/MS/MS analysis; assay type: ADME, organism-based; set-up: dose 3 mg/kg, time infinity, route intravenous; settings: in vivo
[30] = target: Acidic mammalian chitinase (Homo sapiens, UniProt Q9BZP6); test: Inhibition of full-length C-terminal his-tagged human acidic mammalian chitinase expressed in CHOK1 cells assessed as reduction in chitinolytic activity using 4-methylumbelliferyl-beta-D-N,N-diacetylchitobioside hydrate as substrate after 60 mins by fluorometric assay
Sequence of Acidic mammalian chitinase (Homo sapiens, UniProt Q9BZP6) (Q9BZP6 whole entry): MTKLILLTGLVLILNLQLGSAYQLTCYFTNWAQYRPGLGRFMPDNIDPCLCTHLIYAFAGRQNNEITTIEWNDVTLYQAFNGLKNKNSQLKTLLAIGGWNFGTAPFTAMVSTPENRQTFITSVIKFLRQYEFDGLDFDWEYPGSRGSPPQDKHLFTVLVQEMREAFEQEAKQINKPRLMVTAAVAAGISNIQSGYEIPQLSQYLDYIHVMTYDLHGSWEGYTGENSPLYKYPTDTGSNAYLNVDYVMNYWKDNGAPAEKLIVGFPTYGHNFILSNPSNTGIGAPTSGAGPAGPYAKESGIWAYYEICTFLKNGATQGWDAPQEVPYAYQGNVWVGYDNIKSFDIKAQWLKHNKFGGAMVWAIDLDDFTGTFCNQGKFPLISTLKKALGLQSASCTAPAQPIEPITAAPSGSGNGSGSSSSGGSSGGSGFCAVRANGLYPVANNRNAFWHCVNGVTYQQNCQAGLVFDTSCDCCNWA

Sequence of Chitotriosidase-1 (Mus musculus, UniProt Q9D7Q1) (Q9D7Q1 whole entry): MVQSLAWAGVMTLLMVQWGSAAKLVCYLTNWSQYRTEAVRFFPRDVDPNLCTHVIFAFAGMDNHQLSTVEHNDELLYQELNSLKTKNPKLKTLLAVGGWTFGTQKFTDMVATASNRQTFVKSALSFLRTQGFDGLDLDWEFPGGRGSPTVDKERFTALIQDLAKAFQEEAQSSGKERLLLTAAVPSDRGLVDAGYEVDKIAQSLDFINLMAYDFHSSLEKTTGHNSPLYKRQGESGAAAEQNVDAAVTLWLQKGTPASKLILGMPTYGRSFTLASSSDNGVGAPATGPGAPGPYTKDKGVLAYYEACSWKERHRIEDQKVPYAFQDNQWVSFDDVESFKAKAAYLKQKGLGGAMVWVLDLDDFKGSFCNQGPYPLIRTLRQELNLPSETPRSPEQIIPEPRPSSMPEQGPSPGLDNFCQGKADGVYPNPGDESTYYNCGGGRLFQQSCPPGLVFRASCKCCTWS
Sequence of dopamine transporter (DAT) (Q01959 whole entry): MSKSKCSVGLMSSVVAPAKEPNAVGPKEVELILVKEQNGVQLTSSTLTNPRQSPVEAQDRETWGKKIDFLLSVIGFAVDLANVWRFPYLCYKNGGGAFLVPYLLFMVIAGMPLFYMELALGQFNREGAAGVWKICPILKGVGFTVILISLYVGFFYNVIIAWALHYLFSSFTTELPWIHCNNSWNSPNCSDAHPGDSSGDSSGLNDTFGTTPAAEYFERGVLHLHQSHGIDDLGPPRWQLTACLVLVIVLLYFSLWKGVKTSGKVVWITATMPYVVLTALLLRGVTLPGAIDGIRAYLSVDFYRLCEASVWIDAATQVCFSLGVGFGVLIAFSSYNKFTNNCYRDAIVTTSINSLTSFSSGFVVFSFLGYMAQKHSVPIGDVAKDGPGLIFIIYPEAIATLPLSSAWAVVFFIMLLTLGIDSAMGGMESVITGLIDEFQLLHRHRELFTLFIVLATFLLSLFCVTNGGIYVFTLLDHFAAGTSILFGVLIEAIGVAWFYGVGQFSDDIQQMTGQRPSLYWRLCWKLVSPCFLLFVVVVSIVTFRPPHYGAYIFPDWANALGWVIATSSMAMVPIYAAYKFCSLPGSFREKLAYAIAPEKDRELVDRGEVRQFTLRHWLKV
Sequence of Acidic mammalian chitinase (Mus musculus, UniProt Q91XA9) (Q91XA9 whole entry): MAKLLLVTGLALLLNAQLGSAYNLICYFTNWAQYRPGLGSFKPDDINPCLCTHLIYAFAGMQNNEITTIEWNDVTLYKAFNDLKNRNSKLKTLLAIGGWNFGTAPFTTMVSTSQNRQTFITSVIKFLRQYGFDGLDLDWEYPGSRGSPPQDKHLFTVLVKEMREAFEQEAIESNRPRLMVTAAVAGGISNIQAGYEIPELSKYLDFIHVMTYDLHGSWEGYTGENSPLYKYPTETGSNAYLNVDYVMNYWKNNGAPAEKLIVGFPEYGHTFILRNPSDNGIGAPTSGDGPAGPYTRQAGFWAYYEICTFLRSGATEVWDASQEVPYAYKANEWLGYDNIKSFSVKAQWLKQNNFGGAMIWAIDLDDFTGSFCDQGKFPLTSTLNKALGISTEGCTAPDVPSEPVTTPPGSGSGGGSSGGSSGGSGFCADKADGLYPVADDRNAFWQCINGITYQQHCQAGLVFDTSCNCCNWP
Sequence of Chitotriosidase-1 (Homo sapiens, UniProt Q13231) (Q13231 whole entry): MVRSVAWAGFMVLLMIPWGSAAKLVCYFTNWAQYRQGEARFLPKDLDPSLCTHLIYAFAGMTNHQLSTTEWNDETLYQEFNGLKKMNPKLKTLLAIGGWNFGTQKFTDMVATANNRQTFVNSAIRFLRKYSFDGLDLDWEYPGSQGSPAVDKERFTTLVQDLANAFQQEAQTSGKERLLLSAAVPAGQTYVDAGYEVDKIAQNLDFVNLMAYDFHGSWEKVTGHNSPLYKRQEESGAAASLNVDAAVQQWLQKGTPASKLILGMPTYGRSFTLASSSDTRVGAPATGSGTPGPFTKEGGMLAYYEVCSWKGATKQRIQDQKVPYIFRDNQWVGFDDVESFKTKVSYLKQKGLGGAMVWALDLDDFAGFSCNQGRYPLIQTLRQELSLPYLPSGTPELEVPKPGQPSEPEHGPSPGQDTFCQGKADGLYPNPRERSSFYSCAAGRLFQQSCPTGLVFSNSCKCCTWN
T1 sequence (Q12809 whole entry): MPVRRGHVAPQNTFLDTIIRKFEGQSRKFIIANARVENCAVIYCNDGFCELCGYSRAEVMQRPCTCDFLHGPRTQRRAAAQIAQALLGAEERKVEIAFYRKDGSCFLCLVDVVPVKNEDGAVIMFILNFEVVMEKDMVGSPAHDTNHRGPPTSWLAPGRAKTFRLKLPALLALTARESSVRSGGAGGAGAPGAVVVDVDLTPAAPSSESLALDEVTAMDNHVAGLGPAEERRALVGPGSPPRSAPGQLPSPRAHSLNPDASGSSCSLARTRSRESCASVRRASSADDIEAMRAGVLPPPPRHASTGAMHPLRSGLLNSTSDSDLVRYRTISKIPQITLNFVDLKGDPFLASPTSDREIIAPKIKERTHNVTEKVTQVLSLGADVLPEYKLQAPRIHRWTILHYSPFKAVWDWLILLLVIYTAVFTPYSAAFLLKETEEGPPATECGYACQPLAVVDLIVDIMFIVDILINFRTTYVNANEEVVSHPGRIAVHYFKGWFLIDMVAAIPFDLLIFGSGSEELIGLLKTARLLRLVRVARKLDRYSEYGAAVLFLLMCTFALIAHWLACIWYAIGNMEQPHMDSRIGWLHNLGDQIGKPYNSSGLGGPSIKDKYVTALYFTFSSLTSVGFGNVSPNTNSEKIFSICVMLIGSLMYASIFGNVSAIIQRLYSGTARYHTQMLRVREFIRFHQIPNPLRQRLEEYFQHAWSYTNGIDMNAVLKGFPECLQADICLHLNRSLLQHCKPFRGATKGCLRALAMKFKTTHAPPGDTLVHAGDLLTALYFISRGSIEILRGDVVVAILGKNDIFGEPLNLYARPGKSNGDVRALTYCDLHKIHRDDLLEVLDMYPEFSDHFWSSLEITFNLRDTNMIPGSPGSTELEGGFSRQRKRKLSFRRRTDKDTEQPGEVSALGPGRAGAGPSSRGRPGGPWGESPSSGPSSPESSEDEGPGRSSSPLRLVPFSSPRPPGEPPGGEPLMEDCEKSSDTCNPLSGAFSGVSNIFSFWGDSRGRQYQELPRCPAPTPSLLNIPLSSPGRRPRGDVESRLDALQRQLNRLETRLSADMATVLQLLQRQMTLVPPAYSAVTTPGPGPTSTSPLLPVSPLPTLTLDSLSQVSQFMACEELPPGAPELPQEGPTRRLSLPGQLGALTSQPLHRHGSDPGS
Sequence of Sodium-dependent dopamine transporter (Rattus norvegicus, UniProt P23977) (P23977 whole entry): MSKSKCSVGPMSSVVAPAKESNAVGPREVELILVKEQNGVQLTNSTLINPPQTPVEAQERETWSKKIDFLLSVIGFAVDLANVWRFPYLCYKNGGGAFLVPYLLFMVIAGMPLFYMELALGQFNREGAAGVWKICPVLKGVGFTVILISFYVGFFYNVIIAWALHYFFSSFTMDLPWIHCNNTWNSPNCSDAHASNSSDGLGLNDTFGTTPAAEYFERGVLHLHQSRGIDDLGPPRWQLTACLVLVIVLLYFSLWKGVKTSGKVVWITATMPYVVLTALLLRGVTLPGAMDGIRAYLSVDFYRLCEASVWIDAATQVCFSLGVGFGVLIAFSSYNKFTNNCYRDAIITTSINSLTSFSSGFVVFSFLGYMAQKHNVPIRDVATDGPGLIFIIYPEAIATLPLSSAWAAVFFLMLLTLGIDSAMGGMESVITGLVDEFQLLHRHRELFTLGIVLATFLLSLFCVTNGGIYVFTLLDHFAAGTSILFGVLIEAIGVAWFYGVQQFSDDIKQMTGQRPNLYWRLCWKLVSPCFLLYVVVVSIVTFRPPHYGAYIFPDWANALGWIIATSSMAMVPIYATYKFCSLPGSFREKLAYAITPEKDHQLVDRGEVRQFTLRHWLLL
Sequence of Sodium-dependent dopamine transporter (Homo sapiens, UniProt Q01959) (Q01959 whole entry): as the sequence (Q01959 whole entry) above

IC50 (Chitotriosidase-1 [2]): 12500 nM
IC50 [3]: 110 nM
IC50 (Chitotriosidase-1 [4]): 530 nM
SMILES: CO[C@H](C)CN(CCc1ccc(Cl)cc1)C1CCN(c2nc(N)n[nH]2)CC1
IC50 [1]: 6400 nM

IC50 (Chitotriosidase-1 [2]): 4700 nM
IC50 [3]: 73 nM
IC50 (Chitotriosidase-1 [4]): 395 nM
SMILES: CC(C)(O)CN(CCc1ccc(Cl)cc1)C1CCN(c2nc(N)n[nH]2)CC1
IC50 [1]: 19000 nM

IC50 (Chitotriosidase-1 [2]): 6800 nM
IC50 (Chitotriosidase-1 [4]): 330 nM
SMILES: C[C@@H](O)CN(CCc1ccc(Cl)cc1)C1CCN(c2nc(N)n[nH]2)CC1
IC50 [1]: 6100 nM

IC50 (Chitotriosidase-1 [2]): 2350 nM
IC50 (Chitotriosidase-1 [4]): 145 nM
SMILES: C[C@H](O)CN(CCc1ccc(Cl)cc1)C1CCN(c2nc(N)n[nH]2)CC1
IC50 [1]: 14000 nM

The remaining lines, values behind:

SMILES: Nc1n[nH]c(N2CCC(N(CCc3ccc(Cl)cc3)C3COC3)CC2)n1
IC50 [1]: 4400 nM
IC50 (Chitotriosidase-1 [2]): 5500 nM
IC50 [3]: 27 nM
IC50 (Chitotriosidase-1 [4]): 180 nM

SMILES: Nc1n[nH]c(N2CCC(N3CCCC(c4ccc(Cl)cc4)C3)CC2)n1 (centres undefined)
IC50 (Chitotriosidase-1 [2]): 19000 nM
IC50 [3]: 335 nM
IC50 (Chitotriosidase-1 [4]): 1850 nM

SMILES: Nc1nnc(N2CCC(N3C[C@@H](O)C[C@@H]3Cc3ccc(Cl)cc3)CC2)[nH]1
logD [5]: 0.81
IC50 [1]: 13200 nM
IC50 (Chitotriosidase-1 [2]): 520 nM
IC50 [3]: 170 nM

SMILES: CNS(=O)(=O)CCN(CCc1ccc(Cl)cc1)C1CCN(c2nc(N)n[nH]2)CC1
inhibition at 2 h, 10 µM [6]: 13%
IC50 (Chitotriosidase-1 [2]): 7550 nM
IC50 [3]: 21 nM
IC50 (Chitotriosidase-1 [4]): 870 nM

SMILES: CS(=O)(=O)NCCN(CCc1ccc(Cl)cc1)C1CCN(c2nc(N)n[nH]2)CC1
inhibition at 2 h, 10 µM [6]: 4%
IC50 [1]: 7200 nM
IC50 (Chitotriosidase-1 [2]): 12500 nM
IC50 [3]: 22 nM
IC50 (Chitotriosidase-1 [4]): 1200 nM

SMILES: Nc1nnc(N2CCC(N3CCOC[C@@H]3Cc3ccc(Cl)cc3)CC2)[nH]1
Activity (Mus musculus): 37%
Drug uptake [7]: 6.8%
IC50 [8]: 300 nM
IC50 [9]: 7900 nM
IC50 [10]: 12000 nM
bioavailability [11]: 48%
Tmax [12]: 1.5 h
Activity [13]: Non-Toxic
half-life [14]: 2.14 h
Cmax [15]: 1560 ng/mL
AUC(0-inf) [16]: 8010 ng·h/mL
half-life [17]: 7.95 h
Cmax [18]: 16500 ng/mL
AUC [19]: 4980 ng·h/mL
bioavailability [20]: 70%
Tmax [21]: 1 h
AUC(0-inf) [22]: 11100 ng·h/mL
Cmax [23]: 2390 ng/mL
half-life [24]: 2.68 h
half-life [25]: 2.5 h
clearance [26]: 10.5 mL/min/kg
Cmax [27]: 1590 ng/mL
solubility [28]: 310 µg/mL (≈ 823 µM)
AUC(0-inf) [29]: 4760 ng·h/mL
logD [5]: 1.96
inhibition at 2 h, 10 µM [6]: 95%
IC50 [1]: 39000 nM
IC50 (Chitotriosidase-1 [2]): 74 nM
IC50 [3]: 30 nM
IC50 (Chitotriosidase-1 [4]): 48 nM
IC50 [30]: 22 nM

SMILES: Nc1n[nH]c(N2CCC(N(CCc3ccc(Cl)cc3)CC3CCCCO3)CC2)n1 (centres undefined)
inhibition at 2 h, 10 µM [6]: 50%
IC50 [1]: 11000 nM
IC50 (Chitotriosidase-1 [2]): 750 nM
IC50 [3]: 56 nM
IC50 (Chitotriosidase-1 [4]): 21 nM

SMILES: CO[C@H]1CN(C2CCN(c3nnc(N)[nH]3)CC2)[C@H]1Cc1ccc(Cl)cc1
logD [5]: 1.55
IC50 [1]: 340 nM
IC50 (Chitotriosidase-1 [2]): 5550 nM
IC50 [3]: 485 nM
IC50 (Chitotriosidase-1 [4]): 580 nM

SMILES: CO[C@@H]1C[C@H](Cc2ccc(Cl)cc2)N(C2CCN(c3n[nH]c(N)n3)CC2)C1
logD [5]: 1.56
IC50 (Chitotriosidase-1 [2]): 255 nM
IC50 [3]: 21 nM
IC50 (Chitotriosidase-1 [4]): 44 nM
